Read-outs that look alike come from different tables or passages of the source. Values belong to the compound of their own block, whether it stands above or below them.
Experiments:
[1] = system: HEK-uPAR xenograft-bearing mice; conditions: mouse, in vivo
Method: (§1) HEK-uPAR xenografted mice were injected with the respective radiopeptide (5 MBq, 0.5 nmol/mouse, 100 µL 0.9% NaCl containing 0.05% BSA) and sacrificed at 4 h and 24 h after injection. […] The tissues and organs of interest were collected, weighed and counted for activity using a γ-counter (Wallac Wizard 1480, PerkinElmer). […] The results were presented as the average ± SD of n = 3 mice. The time-activity curves were determined for the uptake of [^177Lu]Lu-DOTA-AE105 and [^177Lu]Lu-uPAR-11 in the blood, HEK-uPAR xenografts, kidneys and liver based on non-decay corrected biodistribution data. For the blood, the initial uptake (t = 0) was set as 50% IA/g assuming a blood volume of 2 mL for CD1 nude mice. The initial uptake value (t = 0) for all other organs and tissues was set as 0% IA/g. […] The area under the curves over 48 h after injection (AUC0h→48 h) was calculated using GraphPad Prism software (version 10.1.1). Statistical analyses were performed by applying a one-way ANOVA test with a Dunnet’s multiple comparison post‐test to compare the data of the new radiopeptides with those of [^177Lu]Lu-DOTA-AE105 and a Tukey’s multiple comparisons post‐test to compare the novel radiopeptides among them. A p-value of < 0.05 was considered a statistically significant difference using GraphPad Prism software (version 10.1.1).

[2] = in vivo; conditions: CD1 nude, mouse, 0.5 nmol/mouse, total radioactivity
Method: as §1

[3] = physchem; type: physicochemical; conditions: pH 7.4
Method: The ^177Lu-labeled peptides (50 MBq/nmol) were incubated in mouse or human blood plasma (10 MBq/200 µL) over an incubation period of 24 h at 37 °C. Aliquots and control samples of the radiopeptides diluted in saline were analyzed after 1 h, 4 h and 24 h using thin layer chromatography (TLC) as previously reported (Supplementary Material). The distribution coefficients (logD values) of the ^177Lu-labeled peptides (50 MBq/nmol) were determined using a shake-flask method according to a previously published procedure (Supplementary Material). Methods: The radiopeptides (50 MBq/nmol) were diluted in phosphate buffered saline (PBS) pH 7.4 to obtain an activity concentration of 10 MBq/500 µL. A sample of this radiopeptide solution (~0.5 MBq, 25 µL, 0.01 nmol) was added to a mixture of PBS pH 7.4 (1475 µL) and n-octanol (1500 µL). The vials were vortexed vigorously for 1 min followed by centrifugation (560 rcf, 25°C, 6 min) for phase separation. Aliquots were taken from each phase and measured in a γ-counter (Wallac Wizard 1480, PerkinElmer). The distribution coefficients were calculated as the logarithmic value of the ratio of counts per minute (cpm) measured in the n-octanol phase relative to the cpm measured in the PBS phase. The results were listed as average ± SD of the data obtained from 3 independent experiments, each performed with five replicates.

[4] = type: in vitro ADME; conditions: 1 µM
Method: The ^177Lu-labeled peptides (50 MBq/nmol) were incubated in mouse or human blood plasma (10 MBq/200 µL) over an incubation period of 24 h at 37 °C. Aliquots and control samples of the radiopeptides diluted in saline were analyzed after 1 h, 4 h and 24 h using thin layer chromatography (TLC) as previously reported (Supplementary Material). The distribution coefficients (logD values) of the ^177Lu-labeled peptides (50 MBq/nmol) were determined using a shake-flask method according to a previously published procedure (Supplementary Material).
Methods: A sample of each radiopeptide (50 MBq/nmol) was added to mouse blood plasma (Lot: 32321, Rockland Immunochemicals Inc., USA) or to human blood plasma (Stiftung Blutspende SRK Aargau-Solothurn, Switzerland) to obtain an activity concentration of 10 MBq/200 µL. The test samples were incubated at 37 °C for up to 24 h. Control samples referred to the radiopeptides which were instead diluted in saline at an activity concentration of 10 MBq/200 µL. Aliquots of each sample (2 µL, ~100 kBq) were taken after 1 h, 4 h and 24 h and investigated by means of thin layer chromatography (TLC). The employed method involved reversed-phase TLC plates (MERCK Analytical Chromatography, TLC Silica gel 60 RP-18 F254s) as stationary phase and ACN/citrate buffer (3:7; v/v; pH 5.5) as mobile phase. After the eluent reached the front line, the TLC plates were dried and exposed to a phosphor screen (Super resolution screen PSR10450013, PerkinElmer) for 1 min. The respective screen was developed using a storage phosphor system (Cyclone Plus, PerkinElmer) and analyzed using the OptiQuant Software (version 5.0, Bright Instrument Co Ltd., PerkinElmer).

Xgrft-to-liver ratio [1]: 1.3 ± 0.1
tissue uptake at 4 h ([2]; Blood uptake): 12 ± 1 %ID/g
tissue uptake at 24 h ([2]; Blood uptake): 3.4 ± 1 %ID/g
tissue uptake at 4 h ([2]; Bone uptake): 1.4 ± 0.1 %ID/g
tissue uptake at 24 h ([2]; Bone uptake): 0.78 ± 0.15 %ID/g
tissue uptake at 4 h ([2]; Brain uptake): 0.24 ± 0.01 %ID/g
tissue uptake at 24 h ([2]; Brain uptake): 0.1 ± 0.03 %ID/g
tissue uptake at 4 h ([2]; HEK-uPAR xenograft uptake): 6 ± 0.2 %ID/g
tissue uptake at 24 h ([2]; HEK-uPAR xenograft uptake): 5.7 ± 0.7 %ID/g
tissue uptake at 4 h ([2]; Heart uptake): 4 ± 0.3 %ID/g
tissue uptake at 24 h ([2]; Heart uptake): 1.6 ± 0.2 %ID/g
tissue uptake at 4 h ([2]; Intestines uptake): 1.5 ± 0.1 %ID/g
tissue uptake at 24 h ([2]; Intestines uptake): 0.76 ± 0.12 %ID/g
tissue uptake at 4 h ([2]; Kidneys uptake): 3.9 ± 0.1 %ID/g
tissue uptake at 24 h ([2]; Kidneys uptake): 4.3 ± 0.3 %ID/g
tissue uptake at 4 h ([2]; Liver uptake): 5.3 ± 0.3 %ID/g
tissue uptake at 24 h ([2]; Liver uptake): 4.2 ± 0.3 %ID/g
tissue uptake at 4 h ([2]; Lung uptake): 7.2 ± 1.3 %ID/g
tissue uptake at 24 h ([2]; Lung uptake): 2.6 ± 0.6 %ID/g
tissue uptake at 4 h ([2]; Muscle uptake): 1.2 ± 0.1 %ID/g
tissue uptake at 24 h ([2]; Muscle uptake): 0.6 ± 0.22 %ID/g
tissue uptake at 4 h ([2]; Pancreas uptake): 1.4 ± 0.2 %ID/g
tissue uptake at 24 h ([2]; Pancreas uptake): 0.79 ± 0.24 %ID/g
tissue uptake at 4 h ([2]; Salivary glands uptake): 2.7 ± 0.2 %ID/g
tissue uptake at 24 h ([2]; Salivary glands uptake): 1.4 ± 0.2 %ID/g
tissue uptake at 4 h ([2]; Spleen uptake): 1.9 ± 0.1 %ID/g
tissue uptake at 24 h ([2]; Spleen uptake): 2 ± 0.6 %ID/g
tissue uptake at 4 h ([2]; Stomach uptake): 1.4 ± 0.1 %ID/g
tissue uptake at 24 h ([2]; Stomach uptake): 0.52 ± 0.16 %ID/g
logD [3]: 0.96 ± 0.15
Human blood plasma stability, intact radiopeptide ([4]; 1 h): 100 ± 1%
Mouse blood plasma stability, intact radiopeptide ([4]; 1 h): 100 ± 1%
Human blood plasma stability, intact radiopeptide ([4]; 4 h): 99 ± 1%
Mouse blood plasma stability, intact radiopeptide ([4]; 4 h): 99 ± 1%
Human blood plasma stability, intact radiopeptide ([4]; 24 h): 98 ± 1%
Mouse blood plasma stability, intact radiopeptide ([4]; 24 h): 99 ± 1%
SMILES: Cc1ccc(CCCC(=O)NCCCCCCCC(=O)NCCCC[C@H](NC(=O)CN2CCN(CC(=O)O)CCN(CC(=O)O)CCN(CC(=O)O)CC2)C(=O)N[C@@H](CC(=O)O)C(=O)N[C@@H](CC2CCCCC2)C(=O)N[C@@H](Cc2ccccc2)C(=O)N[C@H](CO)C(=O)N[C@H](CCCNC(=N)N)C(=O)N[C@@H](Cc2ccc(O)cc2)C(=O)N[C@@H](CC(C)C)C(=O)N[C@@H](Cc2c[nH]c3ccccc23)C(=O)N[C@@H](CO)C(N)=O)cc1 [[^177Lu]Lu-uPAR-12, metal not drawn]

AUC0h→48h, HEK-uPAR xenograft [1]: 410 ± 21 % IA/g*h
AUC0h→48h, blood [1]: 109 ± 6 % IA/g*h
AUC0h→48h, kidneys [1]: 103 ± 5 % IA/g*h
AUC0h→48h, liver [1]: 38 ± 2 % IA/g*h
Blood AUC0h→48h relative to [177Lu]Lu-DOTA-AE105 [1]: 3.9 fold
HEK-uPAR xenograft AUC0h→48h relative to [177Lu]Lu-DOTA-AE105 [1]: 16 fold
Kidneys AUC0h→48h relative to [177Lu]Lu-DOTA-AE105 [1]: ~ 1.7 fold
Liver AUC0h→48h relative to [177Lu]Lu-DOTA-AE105 [1]: ~ 5.5 fold
Xenograft-to-blood AUC0h→48h ratio relative to [177Lu]Lu-DOTA-AE105 [1]: 4.2 fold
tissue uptake at 1 h ([2]; Blood uptake): 13 ± 2 %ID/g
tissue uptake at 4 h ([2]; Blood uptake): 5 ± 0.6 %ID/g
tissue uptake at 24 h ([2]; Blood uptake): < 0.03 %ID/g
tissue uptake at 48 h ([2]; Blood uptake): < 0.03 %ID/g
tissue uptake at 1 h ([2]; Bone uptake): 1.7 ± 0.4 %ID/g
tissue uptake at 4 h ([2]; Bone uptake): 0.73 ± 0.06 %ID/g
tissue uptake at 24 h ([2]; Bone uptake): 0.19 ± 0.03 %ID/g
tissue uptake at 48 h ([2]; Bone uptake): 0.11 ± 0.02 %ID/g
tissue uptake at 1 h ([2]; Brain uptake): 0.28 ± 0.03 %ID/g
tissue uptake at 4 h ([2]; Brain uptake): 0.12 ± 0.23 %ID/g
tissue uptake at 24 h ([2]; Brain uptake): < 0.03 %ID/g
tissue uptake at 48 h ([2]; Brain uptake): < 0.03 %ID/g
tissue uptake at 1 h ([2]; HEK-uPAR xenograft uptake): 13 ± 2 %ID/g
tissue uptake at 4 h ([2]; HEK-uPAR xenograft uptake): 16 ± 2 %ID/g
tissue uptake at 24 h ([2]; HEK-uPAR xenograft uptake): 7.9 ± 0.9 %ID/g
tissue uptake at 48 h ([2]; HEK-uPAR xenograft uptake): 5.3 ± 0.7 %ID/g
tissue uptake at 1 h ([2]; Heart uptake): 4.9 ± 0.3 %ID/g
tissue uptake at 4 h ([2]; Heart uptake): 1.8 ± 0.2 %ID/g
tissue uptake at 24 h ([2]; Heart uptake): 0.12 ± 0.02 %ID/g
tissue uptake at 48 h ([2]; Heart uptake): 0.08 ± 0.01 %ID/g
tissue uptake at 1 h ([2]; Intestines uptake): 1.8 ± 0.2 %ID/g
tissue uptake at 4 h ([2]; Intestines uptake): 0.93 ± 0.11 %ID/g
tissue uptake at 24 h ([2]; Intestines uptake): 0.19 ± 0.01 %ID/g
tissue uptake at 48 h ([2]; Intestines uptake): 0.14 ± 0.03 %ID/g
tissue uptake at 1 h ([2]; Kidneys uptake): 6.8 ± 0.9 %ID/g
tissue uptake at 4 h ([2]; Kidneys uptake): 4 ± 0.4 %ID/g
tissue uptake at 24 h ([2]; Kidneys uptake): 1.3 to 1.7 %ID/g
tissue uptake at 48 h ([2]; Kidneys uptake): 1.1 ± 0.1 %ID/g
tissue uptake at 1 h ([2]; Liver uptake): 4.5 ± 0.3 %ID/g
tissue uptake at 4 h ([2]; Liver uptake): 1.8 ± 0.2 %ID/g
tissue uptake at 24 h ([2]; Liver uptake): 0.33 ± 0.03 %ID/g
tissue uptake at 48 h ([2]; Liver uptake): 0.25 ± 0.02 %ID/g
tissue uptake at 1 h ([2]; Lung uptake): 7 ± 1.3 %ID/g
tissue uptake at 4 h ([2]; Lung uptake): 3.1 ± 0.2 %ID/g
tissue uptake at 24 h ([2]; Lung uptake): 0.29 ± 0.08 %ID/g
tissue uptake at 48 h ([2]; Lung uptake): 0.17 ± 0.02 %ID/g
tissue uptake at 1 h ([2]; Muscle uptake): 1.4 ± 0.3 %ID/g
tissue uptake at 4 h ([2]; Muscle uptake): 0.63 ± 0.09 %ID/g
tissue uptake at 24 h ([2]; Muscle uptake): 0.05 %ID/g
tissue uptake at 48 h ([2]; Muscle uptake): 0.04 ± 0.01 %ID/g
tissue uptake at 1 h ([2]; Pancreas uptake): 1.7 ± 0.2 %ID/g
tissue uptake at 4 h ([2]; Pancreas uptake): 0.69 ± 0.05 %ID/g
tissue uptake at 24 h ([2]; Pancreas uptake): 0.09 ± 0.02 %ID/g
tissue uptake at 48 h ([2]; Pancreas uptake): 0.07 ± 0.02 %ID/g
tissue uptake at 1 h ([2]; Salivary glands uptake): 2.9 ± 0.5 %ID/g
tissue uptake at 4 h ([2]; Salivary glands uptake): 1.3 ± 0.2 %ID/g
tissue uptake at 24 h ([2]; Salivary glands uptake): 0.17 ± 0.02 %ID/g
tissue uptake at 48 h ([2]; Salivary glands uptake): 0.18 ± 0.04 %ID/g
tissue uptake at 1 h ([2]; Spleen uptake): 2.2 ± 0.3 %ID/g
tissue uptake at 4 h ([2]; Spleen uptake): 1.1 ± 0.1 %ID/g
tissue uptake at 24 h ([2]; Spleen uptake): 0.49 ± 0.05 %ID/g
tissue uptake at 48 h ([2]; Spleen uptake): 0.37 ± 0.05 %ID/g
tissue uptake at 1 h ([2]; Stomach uptake): 1.8 ± 0.5 %ID/g
tissue uptake at 4 h ([2]; Stomach uptake): 0.75 ± 0.19 %ID/g
tissue uptake at 24 h ([2]; Stomach uptake): 0.12 ± 0.01 %ID/g
tissue uptake at 48 h ([2]; Stomach uptake): 0.09 %ID/g
logD [3]: -0.26 ± 0.09
Human blood plasma stability, intact radiopeptide ([4]; 1 h): 99 ± 1%
Mouse blood plasma stability, intact radiopeptide ([4]; 1 h): 99 ± 1%
Human blood plasma stability, intact radiopeptide ([4]; 4 h): 99 ± 1%
Mouse blood plasma stability, intact radiopeptide ([4]; 4 h): 99 ± 1%
Human blood plasma stability, intact radiopeptide ([4]; 24 h): 95 ± 1%
Mouse blood plasma stability, intact radiopeptide ([4]; 24 h): 95 ± 1%
SMILES: Cc1ccc(CCCC(=O)NCCOCCOCCOCCOCCC(=O)NCCCC[C@H](NC(=O)CN2CCN(CC(=O)O)CCN(CC(=O)O)CCN(CC(=O)O)CC2)C(=O)N[C@@H](CC(=O)O)C(=O)N[C@@H](CC2CCCCC2)C(=O)N[C@@H](Cc2ccccc2)C(=O)N[C@H](CO)C(=O)N[C@H](CCCNC(=N)N)C(=O)N[C@@H](Cc2ccc(O)cc2)C(=O)N[C@@H](CC(C)C)C(=O)N[C@@H](Cc2c[nH]c3ccccc23)C(=O)N[C@@H](CO)C(N)=O)cc1 [[^177Lu]Lu-uPAR-11, metal not drawn]

Reference: publication PMC12920294, “Optimizing uPAR-targeting radiopeptides for improved tissue distribution: progress towards radionuclide therapy” (European Journal of Nuclear Medicine and Molecular Imaging, 2025)
